The test relates to HeLa229. Put plainly: HeLa229 cytotoxicity assay (MTT readout). In kind it is cell-based. The settings on record: 72 hrs. The procedure:
We tested IL-20 in a HeLa229 cytotoxicity assay to measure the ability of IL-20 to prevent cells from growing during normal growth conditions. We used MTT reagent (Promega, Madison, WI USA) as our detection and readout for this inhibition assay. Procedure of a cytotoxicity assay:
Day 1—Plate cells out in complete growth media (with serum) at 5000 cells/well in a 96 well format and let them incubate overnight at 37 degrees and 5% CO2.
Day 2—Dump off media and add a dose response of appropriate ligands in complete growth media (IL-20, zmda1, and MDA7 at 10, 100, and 1000 ng/ml.), along with a positive control retinoic acid (100 uM) in complete growth media, while leaving some wells in complete growth media as controls of how the cells normally grow under normal conditions. Put the cells in incubator and let the assay go for 72 hrs.
Day 5—Add 15 ul/well of MTT reagent, let cells inc. for 4 hrs., then add 100 ul of stop solution, let cells inc. for an additional 1 hr., then read the plate on a multilabel counter (Victor2, PerkinElmer Life Sciences Inc., Boston). The MTT protocol will give you two readings, one at a 650 wavelength (background) and one at a 572 wavelength. Subtract the 650 reading from the 572 reading to get your actual output. These numbers are averaged and converted to a % inhibition value.

Turning to `CC1=C(/C=C/C(C)=C/C=C/C(C)=C/C(=O)O)C(C)(C)CCC1` [Retnoic Acid, retinoic acid], where the note is “Homo sapiens, HeLa 229, HeLa229 cells, retinoic acid 100 uM (positive control), read-out: inhibition of growth”, the inhibition at 100 µM stood at 53%.

B1: IL-20: Interleukin-20 (formally called Zcyto10); human polypeptide of 176 amino acids, SEQ ID NO:2 (protein, listed as Homo sapiens)
chain: MKASSLAFSLLSAAFYLLWTPSTGLKTLNLGSCVIATNLQEIRNGFSDIRGSVQAKDGNIDIRILRRTESLQDTKPANRCCLLRHLLRLYLDRVFKNYQTPDHYTLRKISSLANSFLTIKKDLRLCHAHMTCHCGEEAMKKYSQILSHFEKLEPQAAVVKALGELDILLQWMEETE
For the molecule B1, the “maximal inhibition of growth” value (HeLa229 cells, IL-20 dose response 10, 100, and 1000 ng/ml) was determined as 20%.

Source of the values: patent US8486382B2, “Method for treating cervical cancer” (ZymoGenetics, Inc., priority 2001, dated 2013).
